One assay relates to CD4+ T-cells (PBMCs). Description: In vitro peptide stimulation and T-cell proliferation assay, CD4+. In kind it is cell-based, human. Particulars: for CD4+ mean SI (stimulation index): Study cohort 2. In a few lines: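 CellTrace Violet-labelled fresh PBMCs from type 1 diabetic and healthy donors cultured 7 days in 5% autologous plasma with or without 20 μg/ml insulin peptides. Proliferation measured by flow cytometry as dye dilution within the CD4+ or CD8+ subset. Stimulation index = % proliferation stimulated/% unstimulated.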

For the next assay, the system named is serum IgG autoantibodies. Description: ELISA for autoantibody detection: serum antibody binding to native and oxPTM insulin peptides. Also noted: species or system human. In a few lines:
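Plates coated overnight at 4 °C with native or HOCl/•OH-oxidised insulin peptides (10 μg/ml, carbonate buffer pH 9.6), blocked with 5% BSA, incubated 2 h with sera at 1:200, then probed with anti-human IgG-HRP and developed with TMB, read at 450 nm. Positivity cut-off: healthy-control mean O.D. plus 3×SEM.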

Setting [1] is: Study cohort 1, in house modifications.

Entries after “also recorded” stand apart in the source; their conditions may differ. Where no end group is shown, it is not given here.

For “LVEALYLVCGERGFFYTPKT [insulin B:11-30 native peptide]”, the figures for the “CD4+ T-cell response, subjects with SI > 1 (%)” value in the assay with CD4+ T-cells (PBMCs) (Controls (N = 11)) and with CD4+ T-cells (PBMCs) (Type 1 diabetes (N = 18)) were “(81.8%)” and “(100%)”, respectively. The “CD4+ T-cell response, subjects with SI > 3 (%)” value is listed as “(45.5%)” with CD4+ T-cells (PBMCs) (Controls (N = 11)); 45.5% with CD4+ T-cells (PBMCs) (Controls (N = 11), listed as Nt-INSP-4); “(66.7%)” with CD4+ T-cells (PBMCs) (Type 1 diabetes (N = 18)); 66.7% with CD4+ T-cells (PBMCs) (Type 1 diabetes (N = 18), listed as Nt-INSP-4). The “CD4+ T-cell response, subjects with SI > 5 (%)” value with CD4+ T-cells (PBMCs) (Controls (N = 11)) is “(27.3%)”; with CD4+ T-cells (PBMCs) (Type 1 diabetes (N = 18)), “(5.3%)”. In addition, the figures for the “CD4+ T-cell response, subjects with SI > 10 (%)” value in the assay on CD4+ T-cells (PBMCs) (Controls (N = 11)) and with CD4+ T-cells (PBMCs) (Type 1 diabetes (N = 18)) were “(9.1%)” and “(50.0%)”, respectively. The figures for the “CD4+ mean SI (stimulation index)” value with CD4+ T-cells (PBMCs) (controls) and with CD4+ T-cells (PBMCs) (type 1 diabetes) were 6.89±3.4 and 119.8±51.69, respectively. In addition, in the assay with serum IgG autoantibodies (setting [1]), the “% binders, Healthy controls” value is reported as 20%. Further, the “Mean ± SEM (absorbance, OD), Healthy controls” value with serum IgG autoantibodies (setting [1]) was 0.306 ± 0.032. Further, the “% binders, Type 1 diabetes” value in the assay on serum IgG autoantibodies (Study cohort 1, in house modifications, cut-off = mean of healthy controls to Nt-INSP plus 3 SEM) worked out at 50%. For the same substance, in the assay on serum IgG autoantibodies (Study cohort 1 sera, in house modifications), the “Mean ± SEM (absorbance, OD), Type 1 diabetes” value was 0.469 ± 0.047. Also, the “type 1 diabetes binders (IgG autoantibody reactivity)” value with serum IgG autoantibodies (Study cohort 2, N = 18) amounted to 38.9%.

Take “oxPTM-INSP-3: oxidised forms of insulin peptide 3 (A:12-21), in house oxidised or in silico derivatives (SLYQLENYCN; not fully specified (N-terminus); also: oxidised forms, in house oxidised or in silico derivatives, modified residues not defined)”: the figures for the “CD4+ T-cell response, subjects with SI > 3 (%)” value with CD4+ T-cells (PBMCs) (Controls (N = 11)) and in the assay on CD4+ T-cells (PBMCs) (Type 1 diabetes (N = 18)) were 9.1% and 22.2%, respectively. In addition, in the assay on serum IgG autoantibodies (ELISA), the “Antibody reactivity of serum samples (in words)” value was “High background binding in healthy controls; also recorded: high background binding of healthy controls”.

The values are drawn from patent US20260072027A1, “Peptides And Method” (Queen Mary University of London, priority 2022, published 2026).
